Consider twelve molecules from ChEMBL document CHEMBL3045229, “Molluscicidal and insecticidal potential of monoterpenes on the white garden snail, Theba pisana (Muller) and the cotton leafworm, Spodoptera littoralis (Boisduval)” (2010).

≈ marks a conversion by molar mass, not a printed value. Calls of active or inactive are those of the source. No cut-off for these calls is given here.

What all share (assay type): functional
For assay [1], the system named is Spodoptera littoralis. Nature of the assay: Contact insecticidal activity against cotton leafworm Spodoptera littoralis third-instar larvae exposed to 1 mg/larva compound application through dorsum of larvae followed by feeding on fresh castor bean leaves assessed as insect mortality after 24 hr. The note with it: for Activity: Skin of body.
Assay [2] concerns Spodoptera littoralis. Nature of the assay: Fumigant insecticidal activity against cotton leafworm Spodoptera littoralis third-instar larvae fed on fresh castor bean leaves assessed as insect mortality after 24 hr.
Assay [3] deals with Theba pisana. Nature of the assay: Fumigant molluscicidal activity against Theba pisana (white garden snail) assessed as snail mortality after 24 hr.
Assay [4] relates to Theba pisana. The assay is described as follows: Contact molluscicidal activity against Theba pisana (white garden snail ) exposed to compound throgh application to surface of snail body inside shell assessed as compound level per snail causing snail mortality after 24 hr.

As usually defined, the LC50 is the concentration that kills 50% of the test population. As to `C=C(C)[C@@H]1CC=C(C)CC1` [(-)-LIMONENE], in the assay with Spodoptera littoralis [1], the outcome was Active. For the same molecule, the LC50 with Spodoptera littoralis [2] came out at 11.4 µg/mL (≈ 83.4 µM); with Theba pisana [3], 8.39 µg/mL (≈ 61.6 µM). The LD50 with Theba pisana [4] came to 60.27 µg.

For `C=C[C@@](C)(O)CC=C(C)C` [(-)-LINALOOL], the outcome in the assay on Spodoptera littoralis [1] was Active.

As to `CC1(C)C(=O)[C@@]2(C)CC[C@H]1C2` [(L)-FENCHONE], the result in the assay on Spodoptera littoralis [1] was Active. The results for the LC50 with Spodoptera littoralis [2] and in the assay with Theba pisana [3] were 2.27 µg/mL (≈ 14.9 µM) and 2.51 µg/mL (≈ 16.5 µM), respectively. The LD50 in the assay with Theba pisana [4] amounted to 135.36 µg.

For `C=C1C2CCC(C2)C1(C)C` (configuration not stated) [CAMPHENE], the outcome with Spodoptera littoralis [1] was Active. In addition, the figures for the LC50 in the assay with Spodoptera littoralis [2] and in the assay with Theba pisana [3] were > 100 µg/mL and 33.5 µg/mL (≈ 246 µM), respectively. Further, the LD50 in the assay with Theba pisana [4] is >1000 µg.

Take `CC12CCC(CC1=O)C2(C)C` (configuration not stated) [CAMPHOR]: the outcome with Spodoptera littoralis [1] was Active. The figures for the LC50 in the assay with Spodoptera littoralis [2] and with Theba pisana [3] were 5.61 µg/mL (≈ 36.9 µM) and 7.98 µg/mL (≈ 52.4 µM), respectively. Moreover, in the assay on Theba pisana [4], the LD50 was 89.15 µg.

In general, mortality refers to the share of the test organisms that died. For the molecule `CC(C)c1ccc(C=O)cc1` [CUMINALDEHYDE], the mortality in the assay with Spodoptera littoralis [1] turned out to be 70%. The LC50 in the assay with Spodoptera littoralis [2] and in the assay with Theba pisana [3] was > 100 µg/mL in each case. Moreover, the LD50 in the assay on Theba pisana [4] came out at 28.37 µg.

For `CC12CCC(CC1)C(C)(C)O2` [EUCALYPTOL], the result in the assay on Spodoptera littoralis [1] was Active. Moreover, the values for the LC50 in the assay on Spodoptera littoralis [2] and with Theba pisana [3] were 4.34 µg/mL (≈ 28.1 µM) and 4.17 µg/mL (≈ 27 µM), respectively. The LD50 in the assay on Theba pisana [4] worked out at 223.44 µg.

`CC(C)=CCC/C(C)=C/CO` [GERANIOL]: the mortality with Spodoptera littoralis [1] was determined as 76.7%. Further, the 50% lethal concentration (LC50) with Spodoptera littoralis [2] and with Theba pisana [3] was > 100 µg/mL throughout. In addition, in the assay with Theba pisana [4], the LD50 turned out to be 42.29 µg.

Regarding `C=C(C)[C@@H]1CC=C(C)C(=O)C1` [L-CARVONE], the outcome with Spodoptera littoralis [1] was Active. The values for the LC50 in the assay on Spodoptera littoralis [2] and with Theba pisana [3] were 19.5 µg/mL (≈ 130 µM) and 27 µg/mL (≈ 180 µM), respectively. Also, in the assay on Theba pisana [4], the LD50 was determined as 132.18 µg.

With `CC1CCC(C(C)C)C(O)C1` (configuration not stated) [MENTHOL], the outcome with Spodoptera littoralis [1] was Active. Further, the LC50 in the assay on Spodoptera littoralis [2] was 9.36 µg/mL (≈ 59.9 µM); in the assay with Theba pisana [3], > 100 µg/mL. In the assay with Theba pisana [4], the LD50 was 99.44 µg.

As for `CNC(=O)Oc1cc(C)c(SC)c(C)c1` [METHIOCARB], the LD50 with Theba pisana [4] amounted to 188.68 µg.

`C=CC(=C)CCC=C(C)C` [MYRCENE]: the outcome in the assay on Spodoptera littoralis [1] was Active. Also, the LC50 is > 100 µg/mL with Spodoptera littoralis [2] and 3.88 µg/mL (≈ 28.5 µM) in the assay on Theba pisana [3]. In addition, the LD50 in the assay with Theba pisana [4] is >1000 µg.
